# Like-named read-outs stand apart in the source and are kept apart here.
# Assays:
# PAMPA [1] = tested on: PAMPA
# PAMPA [2] = tested on: PAMPA; remark: listed apart in the source
# [3] = PAMPA, permeability assay across an artificial membrane; details: for Acceptor Concentration, Ave: after incubation
# [4] = PAMPA, ratio-based method, mean ± SD, C0 500 uM, UV detection
smiles,measurement,setting,value
"CCCCC[C@@H]1OC(=O)[C@@H](C)N(C)C(=O)[C@H](CCCCC)OC(=O)[C@@H](C)N(C)C(=O)[C@H](CCCCC)OC(=O)[C@@H](C)N(C)C(=O)[C@H](CCCCC)OC(=O)[C@@H](C)N(C)C1=O [Compound C1.4, ent-verticilide]",Papp,"PAMPA [1]; Papp (x 10^-6 cm/s) – ELSD Detection / [row 1], ELSD Detection",7.05 ×10⁻⁶ cm/s
same,Papp,"PAMPA [1]; Papp (x 10^-6 cm/s) – ELSD Detection / [row 2], ELSD Detection",7.2 ×10⁻⁶ cm/s
same,Papp,"PAMPA [1]; Papp (x 10^-6 cm/s) – ELSD Detection / [row 3], ELSD Detection",4.28 ×10⁻⁶ cm/s
same,Papp,"PAMPA [1]; Papp (x 10^-6 cm/s) – ELSD Detection / [row 4], ELSD Detection",7.39 ×10⁻⁶ cm/s
same,Papp,"PAMPA [1]; Papp (x 10^-6 cm/s) – ELSD Detection / [row 5], ELSD Detection",4.99 ×10⁻⁶ cm/s
same,Papp,"PAMPA [1]; Papp (x 10^-6 cm/s) – ELSD Detection / [row 6], ELSD Detection",6.24 ×10⁻⁶ cm/s
same,Papp,"PAMPA [1]; Papp (x 10^-6 cm/s) – ELSD Detection / [row 7], ELSD Detection",5.58 ×10⁻⁶ cm/s
same,Papp,"PAMPA [1]; Papp (x 10^-6 cm/s) – ELSD Detection / [row 8], ELSD Detection",7.27 ×10⁻⁶ cm/s
same,Papp,"PAMPA [1]; Papp (x 10^-6 cm/s) – ELSD Detection / [row 9], ELSD Detection",4.68 ×10⁻⁶ cm/s
same,Papp,"PAMPA [1]; Papp (x 10^-6 cm/s) – ELSD Detection / [row 10], ELSD Detection",4.63 ×10⁻⁶ cm/s
same,Papp,"PAMPA [1]; Papp (x 10^-6 cm/s) – ELSD Detection / [row 11], ELSD Detection",4.05 ×10⁻⁶ cm/s
same,Papp,"PAMPA [1]; Papp (x 10^-6 cm/s) – ELSD Detection / [row 12], ELSD Detection",6.98 ×10⁻⁶ cm/s
same,Papp,"PAMPA [1]; Papp (x 10^-6 cm/s) – ELSD Detection / [row 13], ELSD Detection",4.62 ×10⁻⁶ cm/s
same,Papp,"PAMPA [1]; Papp (x 10^-6 cm/s) – ELSD Detection / [row 14], ELSD Detection",3.79 ×10⁻⁶ cm/s
same,Papp,"PAMPA [1]; Papp (x 10^-6 cm/s) – ELSD Detection / [row 15], ELSD Detection",4.66 ×10⁻⁶ cm/s
same,Papp,"PAMPA [1]; Papp (x 10^-6 cm/s) – ELSD Detection / [row 16], ELSD Detection",5.98 ×10⁻⁶ cm/s
same,Papp,"PAMPA [1]; Papp (x 10^-6 cm/s) – ELSD Detection / [row 17], ELSD Detection",5.46 ×10⁻⁶ cm/s
same,Papp,"PAMPA [1]; Papp (x 10^-6 cm/s) – ELSD Detection / [row 18], ELSD Detection",6.2 ×10⁻⁶ cm/s
same,Papp,"PAMPA [1]; Papp (x 10^-6 cm/s) – ELSD Detection / [row 19], ELSD Detection",5.51 ×10⁻⁶ cm/s
same,Papp,"PAMPA [1]; Papp (x 10^-6 cm/s) – ELSD Detection / [row 20], ELSD Detection",5.72 ×10⁻⁶ cm/s
same,Papp,"PAMPA [1]; Papp (x 10^-6 cm/s) – ELSD Detection / [row 21], ELSD Detection",4.75 ×10⁻⁶ cm/s
same,Papp,"PAMPA [1]; Papp (x 10^-6 cm/s) – ELSD Detection / [row 22], ELSD Detection",7.56 ×10⁻⁶ cm/s
same,Papp,"PAMPA [1]; Papp (x 10^-6 cm/s) – ELSD Detection / [row 23], ELSD Detection",7.22 ×10⁻⁶ cm/s
same,Papp,"PAMPA [1]; Papp (x 10^-6 cm/s) – ELSD Detection / [row 24], ELSD Detection",4.78 ×10⁻⁶ cm/s
same,Papp,"PAMPA [1]; Papp (x 10^-6 cm/s) – UV Detection / [row 1], UV Detection",6.39 ×10⁻⁶ cm/s
same,Papp,"PAMPA [1]; Papp (x 10^-6 cm/s) – UV Detection / [row 2], UV Detection",7.95 ×10⁻⁶ cm/s
same,Papp,"PAMPA [1]; Papp (x 10^-6 cm/s) – UV Detection / [row 3], UV Detection",6.48 ×10⁻⁶ cm/s
same,Papp,"PAMPA [1]; Papp (x 10^-6 cm/s) – UV Detection / [row 4], UV Detection",7.85 ×10⁻⁶ cm/s
same,Papp,"PAMPA [1]; Papp (x 10^-6 cm/s) – UV Detection / [row 5], UV Detection",6.83 ×10⁻⁶ cm/s
same,Papp,"PAMPA [1]; Papp (x 10^-6 cm/s) – UV Detection / [row 6], UV Detection",7.11 ×10⁻⁶ cm/s
same,Papp,"PAMPA [1]; Papp (x 10^-6 cm/s) – UV Detection / [row 7], UV Detection",6.85 ×10⁻⁶ cm/s
same,Papp,"PAMPA [1]; Papp (x 10^-6 cm/s) – UV Detection / [row 8], UV Detection",7.63 ×10⁻⁶ cm/s
same,Papp,"PAMPA [1]; Papp (x 10^-6 cm/s) – UV Detection / [row 9], UV Detection",4.68 ×10⁻⁶ cm/s
same,Papp,"PAMPA [1]; Papp (x 10^-6 cm/s) – UV Detection / [row 10], UV Detection",4.63 ×10⁻⁶ cm/s
same,Papp,"PAMPA [1]; Papp (x 10^-6 cm/s) – UV Detection / [row 11], UV Detection",4.05 ×10⁻⁶ cm/s
same,Papp,"PAMPA [1]; Papp (x 10^-6 cm/s) – UV Detection / [row 12], UV Detection",6.98 ×10⁻⁶ cm/s
same,Papp,"PAMPA [1]; Papp (x 10^-6 cm/s) – UV Detection / [row 13], UV Detection",4.62 ×10⁻⁶ cm/s
same,Papp,"PAMPA [1]; Papp (x 10^-6 cm/s) – UV Detection / [row 14], UV Detection",3.79 ×10⁻⁶ cm/s
same,Papp,"PAMPA [1]; Papp (x 10^-6 cm/s) – UV Detection / [row 15], UV Detection",4.66 ×10⁻⁶ cm/s
same,Papp,"PAMPA [1]; Papp (x 10^-6 cm/s) – UV Detection / [row 16], UV Detection",5.98 ×10⁻⁶ cm/s
same,Papp,"PAMPA [1]; Papp (x 10^-6 cm/s) – UV Detection / [row 17], UV Detection",6.44 ×10⁻⁶ cm/s
same,Papp,"PAMPA [1]; Papp (x 10^-6 cm/s) – UV Detection / [row 18], UV Detection",7.86 ×10⁻⁶ cm/s
same,Papp,"PAMPA [1]; Papp (x 10^-6 cm/s) – UV Detection / [row 19], UV Detection",4.86 ×10⁻⁶ cm/s
same,Papp,"PAMPA [1]; Papp (x 10^-6 cm/s) – UV Detection / [row 20], UV Detection",6.27 ×10⁻⁶ cm/s
same,Papp,"PAMPA [1]; Papp (x 10^-6 cm/s) – UV Detection / [row 21], UV Detection",6.77 ×10⁻⁶ cm/s
same,Papp,"PAMPA [1]; Papp (x 10^-6 cm/s) – UV Detection / [row 22], UV Detection",5.18 ×10⁻⁶ cm/s
same,Papp,"PAMPA [1]; Papp (x 10^-6 cm/s) – UV Detection / [row 23], UV Detection",5.55 ×10⁻⁶ cm/s
same,Papp,"PAMPA [1]; Papp (x 10^-6 cm/s) – UV Detection / [row 24], UV Detection",6.05 ×10⁻⁶ cm/s
same,Acceptor Concentration,PAMPA [2]; Acceptor Concentration (uM) – ELSD Detection / [row 1],122 µM
same,Acceptor Concentration,PAMPA [2]; Acceptor Concentration (uM) – ELSD Detection / [row 2],148 µM
same,Acceptor Concentration,PAMPA [2]; Acceptor Concentration (uM) – ELSD Detection / [row 3],157 µM
same,Acceptor Concentration,PAMPA [2]; Acceptor Concentration (uM) – ELSD Detection / [row 4],122 µM
same,Acceptor Concentration,PAMPA [2]; Acceptor Concentration (uM) – ELSD Detection / [row 5],137 µM
same,Acceptor Concentration,PAMPA [2]; Acceptor Concentration (uM) – ELSD Detection / [row 6],76.5 µM
same,Acceptor Concentration,PAMPA [2]; Acceptor Concentration (uM) – ELSD Detection / [row 7],98.2 µM
same,Acceptor Concentration,PAMPA [2]; Acceptor Concentration (uM) – ELSD Detection / [row 8],94.4 µM
same,Acceptor Concentration,PAMPA [2]; Acceptor Concentration (uM) – ELSD Detection / [row 9],105 µM
same,Acceptor Concentration,PAMPA [2]; Acceptor Concentration (uM) – ELSD Detection / [row 10],92.1 µM
same,Acceptor Concentration,PAMPA [2]; Acceptor Concentration (uM) – ELSD Detection / [row 11],114 µM
same,Acceptor Concentration,PAMPA [2]; Acceptor Concentration (uM) – ELSD Detection / [row 12],159 µM
same,Acceptor Concentration,PAMPA [2]; Acceptor Concentration (uM) – ELSD Detection / [row 13],121 µM
same,Acceptor Concentration,PAMPA [2]; Acceptor Concentration (uM) – ELSD Detection / [row 14],125 µM
same,Acceptor Concentration,PAMPA [2]; Acceptor Concentration (uM) – ELSD Detection / [row 15],150 µM
same,Acceptor Concentration,PAMPA [2]; Acceptor Concentration (uM) – ELSD Detection / [row 16],136 µM
same,Acceptor Concentration,PAMPA [2]; Acceptor Concentration (uM) – ELSD Detection / [row 17],142 µM
same,Acceptor Concentration,PAMPA [2]; Acceptor Concentration (uM) – ELSD Detection / [row 18],129 µM
same,Acceptor Concentration,PAMPA [2]; Acceptor Concentration (uM) – ELSD Detection / [row 19],90.2 µM
same,Acceptor Concentration,PAMPA [2]; Acceptor Concentration (uM) – ELSD Detection / [row 20],59.8 µM
same,Acceptor Concentration,PAMPA [2]; Acceptor Concentration (uM) – ELSD Detection / [row 21],91.7 µM
same,Acceptor Concentration,PAMPA [2]; Acceptor Concentration (uM) – ELSD Detection / [row 22],130 µM
same,Acceptor Concentration,PAMPA [2]; Acceptor Concentration (uM) – ELSD Detection / [row 23],115 µM
same,Acceptor Concentration,PAMPA [2]; Acceptor Concentration (uM) – ELSD Detection / [row 24],125 µM
same,Diffusion (%),"[3]; PAMPA percent diffusion, C0 500 uM",25.5 ± 3.4%
same,Papp at 500 uM,"[3]; PAMPA, Ave, ELSD detection, C0 500 uM",5.69 ×10⁻⁶ cm/s
same,Papp at 500 uM,[3]; [4],7.14 ± 0.65 ×10⁻⁶ cm/s
same,"Acceptor Concentration, Ave","[3]; PAMPA, ELSD detection, C0 500 uM",118.4 µM
same,"Acceptor Concentration, Ave","[3]; PAMPA, UV detection, C0 500 uM",127.6 µM
same,"Acceptor Concentration, Ave","[3]; PAMPA, UV detection, C0 500 uM, listed as ent‐Verticilide",127.56 µM
same,LogPapp,[3]; [4],-5.21 ± 0.09
same,Δ % diffusion,[3]; increase: difference between percent diffusion of macrocycle vs linear counterpart,↑14%

# Source: publication PMC11995216, “End-to-End Backbone Cyclization Enhances Passive Permeability of bRo5 Oligomeric Depsipeptides with Nonlinear Size Dependence” (ACS Medicinal Chemistry Letters, 2025)
